Experimental data taken from ChEMBL document CHEMBL5465560, “Selectivity Literature for EUbOPEN Chemogenomic Library” (2024).

Legend:
[1] = target: Ephrin type-A receptor 2 (Homo sapiens) (UniProt P29317); assay: Selectivity interaction (Millipore kinase profiler) EUB0000124b EPHA2; settings: at 10 µM
[2] = target: Protein kinase C beta type (Homo sapiens, UniProt P05771); assay: Selectivity interaction (Millipore kinase profiler) EUB0000124b PRKCB; settings: at 10 µM
[3] = tested on: Epidermal growth factor receptor (Homo sapiens), P00533 [G719C]; assay: (§1) Selectivity interaction (KinomeScan (DiscoverX)) EUB0000045b EGFR
[4] = tested on: Epidermal growth factor receptor (Homo sapiens), P00533 [G719S]; assay: as §1
[5] = tested on: Epidermal growth factor receptor (Homo sapiens), P00533 [L858R,T790M]; assay: as §1
Chain of Epidermal growth factor receptor (Homo sapiens), P00533 [L858R,T790M] (P00533 whole entry T790M/L858R, looked up): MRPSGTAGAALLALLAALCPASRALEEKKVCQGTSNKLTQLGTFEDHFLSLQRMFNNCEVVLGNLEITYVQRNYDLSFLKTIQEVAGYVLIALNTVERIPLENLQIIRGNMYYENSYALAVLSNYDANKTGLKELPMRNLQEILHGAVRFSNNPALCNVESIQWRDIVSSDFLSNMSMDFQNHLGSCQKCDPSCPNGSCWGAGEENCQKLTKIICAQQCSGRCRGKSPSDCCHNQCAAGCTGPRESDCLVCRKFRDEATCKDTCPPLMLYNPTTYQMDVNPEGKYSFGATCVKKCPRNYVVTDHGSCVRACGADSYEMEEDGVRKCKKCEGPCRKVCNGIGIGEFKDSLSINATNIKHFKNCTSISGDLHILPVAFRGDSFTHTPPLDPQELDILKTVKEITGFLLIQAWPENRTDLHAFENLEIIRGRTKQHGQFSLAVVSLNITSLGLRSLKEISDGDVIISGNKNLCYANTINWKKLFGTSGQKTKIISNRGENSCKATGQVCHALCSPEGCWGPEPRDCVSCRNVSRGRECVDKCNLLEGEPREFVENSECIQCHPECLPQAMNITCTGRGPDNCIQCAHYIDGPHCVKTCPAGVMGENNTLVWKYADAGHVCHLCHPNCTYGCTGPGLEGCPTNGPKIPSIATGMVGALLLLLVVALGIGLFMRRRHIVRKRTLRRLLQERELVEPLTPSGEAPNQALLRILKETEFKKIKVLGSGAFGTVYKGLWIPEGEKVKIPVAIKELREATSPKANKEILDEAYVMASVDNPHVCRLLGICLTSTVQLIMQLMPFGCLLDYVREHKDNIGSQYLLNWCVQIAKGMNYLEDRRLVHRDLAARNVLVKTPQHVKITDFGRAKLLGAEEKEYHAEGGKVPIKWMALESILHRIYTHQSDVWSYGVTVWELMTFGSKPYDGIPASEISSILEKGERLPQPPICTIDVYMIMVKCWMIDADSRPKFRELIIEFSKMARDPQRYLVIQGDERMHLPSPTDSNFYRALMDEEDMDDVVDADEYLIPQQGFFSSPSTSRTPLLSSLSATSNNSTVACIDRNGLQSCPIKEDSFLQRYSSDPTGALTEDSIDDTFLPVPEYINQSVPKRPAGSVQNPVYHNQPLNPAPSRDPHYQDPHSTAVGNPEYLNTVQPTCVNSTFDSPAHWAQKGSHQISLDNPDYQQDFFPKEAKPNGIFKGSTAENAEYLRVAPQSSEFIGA

[6] = tested on: Epidermal growth factor receptor (Homo sapiens), P00533 [L858R]; assay: as §1
Chain of Epidermal growth factor receptor (Homo sapiens), P00533 [L858R] (P00533 whole entry L858R): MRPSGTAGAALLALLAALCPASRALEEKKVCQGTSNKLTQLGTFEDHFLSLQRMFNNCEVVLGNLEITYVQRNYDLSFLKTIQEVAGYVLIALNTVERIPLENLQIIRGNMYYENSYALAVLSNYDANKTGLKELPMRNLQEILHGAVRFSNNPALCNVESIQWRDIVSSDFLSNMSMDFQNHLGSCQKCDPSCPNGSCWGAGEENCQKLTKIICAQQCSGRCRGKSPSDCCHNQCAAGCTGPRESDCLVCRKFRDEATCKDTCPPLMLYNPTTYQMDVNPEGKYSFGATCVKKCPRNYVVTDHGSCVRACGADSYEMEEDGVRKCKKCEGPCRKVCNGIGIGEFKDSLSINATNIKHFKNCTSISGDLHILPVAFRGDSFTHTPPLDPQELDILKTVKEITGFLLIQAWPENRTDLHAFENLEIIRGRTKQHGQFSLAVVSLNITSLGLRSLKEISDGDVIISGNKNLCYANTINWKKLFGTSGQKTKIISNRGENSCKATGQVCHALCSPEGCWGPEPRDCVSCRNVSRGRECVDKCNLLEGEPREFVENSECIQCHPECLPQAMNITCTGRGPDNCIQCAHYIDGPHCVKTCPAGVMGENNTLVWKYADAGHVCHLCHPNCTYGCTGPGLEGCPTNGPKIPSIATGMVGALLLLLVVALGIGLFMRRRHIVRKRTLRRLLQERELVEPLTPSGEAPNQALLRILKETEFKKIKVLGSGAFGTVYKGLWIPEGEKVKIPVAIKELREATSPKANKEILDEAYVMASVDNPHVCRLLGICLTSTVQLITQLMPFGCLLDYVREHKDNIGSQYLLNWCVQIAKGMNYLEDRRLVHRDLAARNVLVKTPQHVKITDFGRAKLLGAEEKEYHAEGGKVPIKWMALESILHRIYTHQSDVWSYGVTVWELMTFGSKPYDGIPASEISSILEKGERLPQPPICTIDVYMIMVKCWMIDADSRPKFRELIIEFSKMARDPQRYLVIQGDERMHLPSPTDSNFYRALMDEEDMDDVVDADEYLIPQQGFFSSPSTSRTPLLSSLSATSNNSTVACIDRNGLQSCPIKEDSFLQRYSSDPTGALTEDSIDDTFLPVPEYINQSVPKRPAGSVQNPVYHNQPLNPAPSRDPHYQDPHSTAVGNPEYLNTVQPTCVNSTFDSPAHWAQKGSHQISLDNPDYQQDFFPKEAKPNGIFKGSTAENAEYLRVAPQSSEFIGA

[7] = tested on: Epidermal growth factor receptor (Homo sapiens), P00533 [L861Q]; assay: as §1
[8] = tested on: Epidermal growth factor receptor (Homo sapiens), P00533 [T790M]; assay: as §1
[9] = tested on: Epidermal growth factor receptor (Homo sapiens), P00533 [UNDEFINED MUTATION]; assay: as §1
Chain of Epidermal growth factor receptor (Homo sapiens), P00533 [UNDEFINED MUTATION] (P00533 whole entry, looked up, change not shown): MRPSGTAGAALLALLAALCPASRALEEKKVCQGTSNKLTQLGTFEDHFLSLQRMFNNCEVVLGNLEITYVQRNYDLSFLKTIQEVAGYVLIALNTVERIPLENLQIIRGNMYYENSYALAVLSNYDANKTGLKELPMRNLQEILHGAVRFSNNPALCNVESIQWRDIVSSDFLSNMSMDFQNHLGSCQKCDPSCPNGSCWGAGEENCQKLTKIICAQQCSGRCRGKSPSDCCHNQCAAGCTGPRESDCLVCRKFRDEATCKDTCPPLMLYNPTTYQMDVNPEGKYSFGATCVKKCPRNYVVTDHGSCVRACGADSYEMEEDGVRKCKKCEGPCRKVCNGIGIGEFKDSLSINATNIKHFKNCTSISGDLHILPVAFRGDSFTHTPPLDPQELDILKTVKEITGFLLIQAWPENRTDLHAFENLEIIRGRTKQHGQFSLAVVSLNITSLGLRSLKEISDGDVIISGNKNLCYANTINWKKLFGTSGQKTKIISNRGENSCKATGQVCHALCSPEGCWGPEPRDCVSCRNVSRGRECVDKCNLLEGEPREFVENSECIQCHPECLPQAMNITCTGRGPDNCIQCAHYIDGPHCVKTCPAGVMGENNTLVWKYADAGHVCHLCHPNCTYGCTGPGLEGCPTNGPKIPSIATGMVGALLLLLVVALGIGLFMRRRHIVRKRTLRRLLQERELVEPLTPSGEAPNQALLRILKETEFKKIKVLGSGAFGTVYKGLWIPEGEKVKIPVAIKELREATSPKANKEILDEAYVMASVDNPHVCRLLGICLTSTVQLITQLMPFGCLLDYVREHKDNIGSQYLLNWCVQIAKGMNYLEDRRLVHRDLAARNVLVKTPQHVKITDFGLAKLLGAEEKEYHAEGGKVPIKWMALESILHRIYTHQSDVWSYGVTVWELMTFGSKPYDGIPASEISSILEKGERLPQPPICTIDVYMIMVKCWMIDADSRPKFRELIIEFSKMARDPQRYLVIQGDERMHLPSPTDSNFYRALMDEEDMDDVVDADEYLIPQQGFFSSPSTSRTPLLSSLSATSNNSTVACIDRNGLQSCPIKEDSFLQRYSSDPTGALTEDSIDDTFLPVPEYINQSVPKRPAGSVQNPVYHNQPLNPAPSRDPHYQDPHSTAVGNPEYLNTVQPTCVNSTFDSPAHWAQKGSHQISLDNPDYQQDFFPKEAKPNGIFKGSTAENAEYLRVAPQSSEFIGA

[10] = target: Epidermal growth factor receptor (Homo sapiens, UniProt P00533); assay: as §1
Chain of Epidermal growth factor receptor (P00533 whole entry): as the sequence (P00533 whole entry, looked up, change not shown) above

[11] = target: T1, Dual specificity tyrosine-phosphorylation-regulated kinase 2 (Homo sapiens) (UniProt Q92630); assay: Selectivity interaction (Upstate Kinase Profiler service (Millipore)) EUB0000056c DYRK2; settings: at 1 µM
T1 sequence (whole entry): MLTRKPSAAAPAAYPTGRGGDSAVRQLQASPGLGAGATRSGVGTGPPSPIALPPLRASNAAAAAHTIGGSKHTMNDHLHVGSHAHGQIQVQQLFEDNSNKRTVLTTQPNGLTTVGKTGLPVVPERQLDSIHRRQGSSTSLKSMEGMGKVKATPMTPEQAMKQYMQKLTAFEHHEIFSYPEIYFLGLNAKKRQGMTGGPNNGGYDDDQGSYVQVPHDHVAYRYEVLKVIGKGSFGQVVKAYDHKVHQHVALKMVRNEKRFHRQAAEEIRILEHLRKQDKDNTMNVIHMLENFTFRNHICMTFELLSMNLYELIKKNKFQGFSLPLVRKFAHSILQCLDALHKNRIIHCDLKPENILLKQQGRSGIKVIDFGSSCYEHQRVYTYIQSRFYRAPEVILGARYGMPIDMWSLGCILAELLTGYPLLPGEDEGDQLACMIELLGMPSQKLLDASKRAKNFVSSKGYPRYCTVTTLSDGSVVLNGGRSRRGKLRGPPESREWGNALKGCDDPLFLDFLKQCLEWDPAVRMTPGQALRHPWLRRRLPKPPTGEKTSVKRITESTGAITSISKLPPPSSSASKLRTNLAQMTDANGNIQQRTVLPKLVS

[12] = target: Serine/threonine-protein kinase N1 (Homo sapiens, UniProt Q16512); settings: at 10 µM
[13] = target: Serine/threonine-protein kinase Chk2 (Homo sapiens) (UniProt O96017); assay: Selectivity interaction (ActivX KiNativ screen (kinase selectivity in THP-1 cell lysates)) EUB0000639a CHEK2; assay type: subcellular; settings: lysate, at 0.04 µM
[14] = target: T2, TGF-beta receptor type-1 (Homo sapiens) (UniProt P36897); assay: Selectivity interaction (Kinase panel (Invitrogen)) EUB0000639a TGFBR1; settings: at 200 nM
T2 sequence (whole entry): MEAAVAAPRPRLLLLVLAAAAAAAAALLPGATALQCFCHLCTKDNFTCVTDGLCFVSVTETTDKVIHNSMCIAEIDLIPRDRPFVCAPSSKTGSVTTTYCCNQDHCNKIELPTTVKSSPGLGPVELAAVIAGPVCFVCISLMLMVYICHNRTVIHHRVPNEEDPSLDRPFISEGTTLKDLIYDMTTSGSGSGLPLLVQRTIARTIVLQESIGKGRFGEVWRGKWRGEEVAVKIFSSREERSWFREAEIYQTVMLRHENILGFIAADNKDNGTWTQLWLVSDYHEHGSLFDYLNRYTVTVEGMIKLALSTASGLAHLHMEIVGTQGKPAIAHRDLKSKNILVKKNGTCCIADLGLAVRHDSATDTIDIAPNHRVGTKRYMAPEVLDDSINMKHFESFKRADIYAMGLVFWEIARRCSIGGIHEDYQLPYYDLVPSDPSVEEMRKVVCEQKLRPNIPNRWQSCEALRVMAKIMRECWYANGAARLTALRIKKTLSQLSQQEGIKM

[15] = target: T1, Dual specificity tyrosine-phosphorylation-regulated kinase 2 (Homo sapiens); assay: Selectivity interaction (KinomeScan (DiscoverX)) EUB0000229b DYRK2; settings: at 10 µM
[16] = target: T3, Serine/threonine-protein kinase NLK (Homo sapiens) (UniProt Q9UBE8); assay: Selectivity interaction (KinomeScan (DiscoverX)) EUB0000695a NLK; settings: at 100 nM
T3 sequence (whole entry): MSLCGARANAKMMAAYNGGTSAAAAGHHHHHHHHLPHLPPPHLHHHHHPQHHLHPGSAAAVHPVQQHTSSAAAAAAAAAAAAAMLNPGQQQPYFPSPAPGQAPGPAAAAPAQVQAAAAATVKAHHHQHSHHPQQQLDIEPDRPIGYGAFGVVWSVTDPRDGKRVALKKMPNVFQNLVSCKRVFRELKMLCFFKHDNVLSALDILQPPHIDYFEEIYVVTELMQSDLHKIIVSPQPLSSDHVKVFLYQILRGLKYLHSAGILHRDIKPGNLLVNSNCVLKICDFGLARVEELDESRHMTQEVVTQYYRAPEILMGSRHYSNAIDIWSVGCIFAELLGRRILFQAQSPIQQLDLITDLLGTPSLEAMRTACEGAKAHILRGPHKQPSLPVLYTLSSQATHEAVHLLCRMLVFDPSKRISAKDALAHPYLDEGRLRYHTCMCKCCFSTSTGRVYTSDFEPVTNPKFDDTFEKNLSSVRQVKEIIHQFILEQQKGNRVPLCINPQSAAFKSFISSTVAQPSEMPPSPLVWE

Q: Which results are given for `CC(=O)Nc1cccc(-n2c(=O)n(C3CC3)c(=O)c3c(Nc4ccc(I)cc4F)n(C)c(=O)c(C)c32)c1`?
A: % of control [1]: 93%; % of control [2]: 102%

Q: `C=CC(=O)Nc1cc(-n2c(=O)ccc3cnc4ccc(-c5ccc(NS(C)(=O)=O)cc5)cc4c32)ccc1C` was tested. Which % of control ([3]; at 1 µM) did it give?
A: Its % of control is 73%.

Q: And the % of control ([3]; at 10 µM)?
A: Its % of control is 90%.

Q: What about the % of control ([4]; at 1 µM) of the same molecule?
A: The % of control was 90%.

Q: And the % of control ([4]; at 10 µM)?
A: Its % of control is 85%.

Q: What about the % of control ([5]; at 1 µM) of the same molecule?
A: Its % of control is 100%.

Q: And the % of control ([5]; at 10 µM)?
A: Its % of control is 44%.

Q: And the % of control ([6]; at 1 µM)?
A: The % of control was 95%.

Q: What about the % of control ([6]; at 10 µM) of the same molecule?
A: The % of control was 50%.

Q: What about the % of control ([7]; at 1 µM) of the same molecule?
A: Its % of control is 40%.

Q: And the % of control ([7]; at 10 µM)?
A: Its % of control is 45%.

Q: And the % of control ([8]; at 1 µM)?
A: The % of control was 11%.

Q: And the % of control ([8]; at 10 µM)?
A: Its % of control is 2.1%.

Q: And the % of control ([9]; at 1 µM)?
A: Its % of control is 100%.

Q: And the % of control ([9]; at 10 µM)?
A: Its % of control is 32%.

Q: And the % of control ([10]; at 1 µM)?
A: Its % of control is 82%.

Q: What about the % of control ([10]; at 10 µM) of the same molecule?
A: The % of control was 25%.

Q: How did the % of inhibition [11] turn out when `Cc1ccc(-c2ccc3c(ccc4sc5c(c43)NC[C@@H](C)NC5=O)n2)cn1` was run?
A: Its % of inhibition is 27%.

Q: Which % of control [12] does the source give for `Cc1cc([C@@H](C)Nc2ccccc2C(=O)O)c2nc(N3CCOCC3)cc(=O)n2c1` [AZD-6482] here?
A: Its % of control is 100%.

Q: For `CC[C@@H]1[C@H](F)C(=O)N[C@@H]1COc1nccc2cc(C(N)=O)c(OC)cc12` [ZIMLOVISERTIB], which % of inhibition [13] is on record?
A: Its % of inhibition is -4.5%.

Q: What about the % of inhibition [14] of the same molecule?
A: The % of inhibition was 27.1%.

Q: With `COc1cc(N(C)c2ccnc3ccc(C(F)(F)F)cc23)cc(OC)c1OC` as the molecule, how does the % binding [15] read?
A: The % binding was 84%.

Q: Which % of control [16] does the source give for `Cc1cc(F)c(C(=O)Nc2cccc(-c3nncn3C(C)C)n2)cc1-n1cnc(C2CC2)c1` here?
A: Its % of control is 96%.
